Assay results as given in patent US20240417410A1, “TRICYCLIC COMPOUNDS FOR THE TREATMENT OF CANCER” (Hoffmann-La Roche Inc., priority 2023, published 2024).

Legend:
[1] = system: panel of 119 human cancer cell lines with RAS mutations or amplifications; test: Cell proliferation analysis, panel of 119 human cancer cell lines; type: cell-based; conditions: RAS addicted cell panels (n=119), read-out: median IC50
Description: The objective of this study was to evaluate the extent and degree to which Example 24 or A122 inhibits cell proliferation in a panel of 119 human cancer cell lines with RAS mutations or amplifications across various histological subtypes.
On Day-1, cells were plated in 384-well round-bottom ultra-low adhesion plates (cat. Corning 3830, with cell density adjusted according to Table 3. The assay plate was then centrifuged at 1000 rpm for 1 minute to ensure even distribution of cells. The plate was incubated at 37° C. in a 5% CO2 atmosphere (It is worth noting that for SW1271 cell plate, it needs to be incubated in an incubator without additional CO2).
On Day 0, Example 24 or A122 was added to each well using a Tecan HP D300E dispenser, with a 3-fold dilution across 9 doses. The final concentration of DMSO was normalized to 0.2%. The assay plate was then centrifuged at 1000 rpm for 1 minute and incubated for 7 days.
On Day 7, CellTiter-Glo (CTG) 3D reagent (Promega G9683) was dispensed into each well of a 384-well plate using a multi-drop dispenser (Thermo Scientific 66413). […]
For data analysis, the XL-fit software (Supplier: ID Business Solutions Ltd., Software version: XL fit 5.0) was utilized. The percentage of inhibition was calculated using the formula: Inhibition %=(Max-Sample value)/(Max-Min)×100. […]

[2] = system: Miapaca-2 KRAS G12C + A59T; test: Stable KRAS mutant cell line viability assay (CellTiter-Glo); type: cell-based; conditions: Miapaca-2 mutant cells, 3 d
Excerpt: (§1) The aim of the study was to determine the potency and efficacy of compounds for cell proliferation using CellTiter-Glo® (CTG) Luminescent Cell Viability Assay (Promega Corp., Madison, WI). We cloned 14 KRAS^G12C variant sequences with secondary mutations (V8A, V9Y, S17E, T58I, A59T, S65W, R68S, D69P, M72I, D92R, H95N, Y96D, Q99W and F156L) into the Miapaca-2. Totally 14 stable Miapaca-2 mutant cell lines were established through lentivirus infection. For the cell viability assay, cells were dosed with compounds in a 9-point dose-response using a 4 fold dilution series at a top dose of 10 μM. KRAS mutant cells were maintained in DMEM+10% FBS+2.5% HI Horse serum+1% PS+1 μg/mL Puromycin and seeded into 96-well plates at 800-1,500 cells per well 24 h before compound addition and then incubated with compound for 3 d before assaying viability (CellTiter-Glo, Promega). Assays were performed in biological duplicates. Nonlinear regression curves were fitted using Xfit. IC50 (absolute IC50) is the dose at which the estimated viability is 50% relative to untreated wells.

[3] = system: Miapaca-2 KRAS G12C + D92R; test: as above; type: cell-based; conditions: Miapaca-2 mutant cells, 3 d
Excerpt: as §1

[4] = system: Miapaca-2 KRAS G12C + F156L; test: as above; type: cell-based; conditions: Miapaca-2 mutant cells, 3 d
Excerpt: as §1

[5] = system: Miapaca-2 KRAS G12C + H95N; test: as above; type: cell-based; conditions: Miapaca-2 mutant cells, 3 d
Excerpt: as §1

[6] = system: Miapaca-2 KRAS G12C + M72I; test: as above; type: cell-based; conditions: Homo sapiens, MIA PaCa-2, 72 h; Miapaca-2 mutant cells, 3 d
Excerpt: as §1

[7] = system: Miapaca-2 KRAS G12C + Q99W; test: as above; type: cell-based; conditions: Miapaca-2 mutant cells, 3 d
Excerpt: as §1

[8] = system: Miapaca-2 KRAS G12C + R68S; test: as above; type: cell-based; conditions: Miapaca-2 mutant cells, 3 d
Excerpt: as §1

[9] = system: Miapaca-2 KRAS G12C + S17E; test: as above; type: cell-based; conditions: Miapaca-2 mutant cells, 3 d
Excerpt: as §1

[10] = system: Miapaca-2 KRAS G12C + S65W; test: as above; type: cell-based; conditions: Miapaca-2 mutant cells, 3 d
Excerpt: as §1

[11] = system: Miapaca-2 KRAS G12C + T58I; test: as above; type: cell-based; conditions: Miapaca-2 mutant cells, 3 d
Excerpt: as §1

[12] = system: Miapaca-2 KRAS G12C + V8A; test: as above; type: cell-based; conditions: Miapaca-2 mutant cells, 3 d
Excerpt: as §1

[13] = system: Miapaca-2 KRAS G12C + V9Y; test: as above; type: cell-based; conditions: Miapaca-2 mutant cells, 3 d
Excerpt: as §1

[14] = system: Miapaca-2 KRAS G12C + Y96D; test: as above; type: cell-based; conditions: Miapaca-2 mutant cells, 3 d
Excerpt: as §1

AGS cells (KRAS G12D) = test: Cell viability assay (Cell Counting Kit-8, 3-day); type: cell-based, human; conditions: Homo sapiens, 72 h, 72 hrs incubation
In short: (§2)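 Read-out is CCK-8 absorbance (OD450 minus OD650, 2 hrs after reagent), reflecting NADPH after 72 hrs of compound exposure in 0.5% DMSO. Seeding density was 5,000 cells/well for NCI-H358 and 2,000 for AGS and SW620. IC50 derived by 4-parameter sigmoidal fitting.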

[15] = system: NCI-H358 cells (KRAS G12C); test: Cell viability assay (Cell Counting Kit-8, 3-day); type: cell-based, human; conditions: Homo sapiens, NCI-H358, 72 h, NCI-H358, 72 hrs incubation
In short: as §2

SW620 cells (KRAS G12V) = test: Cell viability assay (Cell Counting Kit-8, 3-day); type: cell-based, human; conditions: Homo sapiens, SW-620; SW620, 72 hrs incubation
In short: as §2

Row | SMILES | IC50 [1] [nM] | IC50 [2] [nM] | IC50 [3] [nM] | IC50 [4] [nM] | IC50 [5] [nM] | IC50 [6] [nM] | IC50 [7] [nM] | IC50 [8] [nM] | IC50 [9] [nM] | IC50 [10] [nM] | IC50 [11] [nM] | IC50 [12] [nM] | IC50 [13] [nM] | IC50 [14] [nM] | IC50 (AGS cells (KRAS G12D)) [nM] | IC50 [15] [nM] | IC50 (SW620 cells (KRAS G12V)) [nM]
1 | CO[C@@H](C)c1ncc(N2CCN(C)CC2)cc1-c1c2c3cc(cc4c3n1CCC4)-c1csc(n1)C[C@H](NC(=O)[C@H]1[C@H](C)[C@@H]1C)C(=O)N1CCC[C@H](N1)C(=O)OCC(C)(C)C2 (atropisomer, axis not shown; (M)) [Example 24, (1r,2R,3S)-N-[(7S,13S)-(20M)-20-[2-[(1S)-1-methoxyethyl]-5-(4-methylpiperazin-1-yl)-3-pyridyl]-17,17-dimethyl-8,14-dioxo-15-oxa-4-thia-9,21,30,31-tetrazahexacyclo[23.3.1.1^2,5.1^9,13.0^19,27.0^21,26]hentriaconta-1 (28),2,5 (31), 19,25 (29),26-hexaen-7-yl]-2,3-dimethyl-cyclopropanecarboxamide] | 0.95 | 6 | 2 | 1 | 1 | 1 | 5 | 2 | 3 | 1 | 2 | 1 | 1 | 2 | 4.7 | 1.3 | 0.3
2 | CCn1c(-c2cc(N3CCN(C)CC3)cnc2[C@H](C)OC)c2c3cc(ccc31)-c1csc(n1)C[C@H](NC(=O)[C@H]1C[C@@H]1C)C(=O)N1CCC[C@H](N1)C(=O)OCC(C)(C)O2 [Example A122, reference compound] | 1.9 |  |  |  |  |  |  |  |  |  |  |  |  |  |  |  | 
